A value given as a limit tells only on which side of the number the result lay.

Experiment [1] is described as follows: Inhibition of Escherichia coli GAR transformylase.
In experiment [2] the target is T1, Trifunctional purine biosynthetic protein adenosine-3 (Homo sapiens, UniProt P22102).
T1 sequence (P22102 whole entry): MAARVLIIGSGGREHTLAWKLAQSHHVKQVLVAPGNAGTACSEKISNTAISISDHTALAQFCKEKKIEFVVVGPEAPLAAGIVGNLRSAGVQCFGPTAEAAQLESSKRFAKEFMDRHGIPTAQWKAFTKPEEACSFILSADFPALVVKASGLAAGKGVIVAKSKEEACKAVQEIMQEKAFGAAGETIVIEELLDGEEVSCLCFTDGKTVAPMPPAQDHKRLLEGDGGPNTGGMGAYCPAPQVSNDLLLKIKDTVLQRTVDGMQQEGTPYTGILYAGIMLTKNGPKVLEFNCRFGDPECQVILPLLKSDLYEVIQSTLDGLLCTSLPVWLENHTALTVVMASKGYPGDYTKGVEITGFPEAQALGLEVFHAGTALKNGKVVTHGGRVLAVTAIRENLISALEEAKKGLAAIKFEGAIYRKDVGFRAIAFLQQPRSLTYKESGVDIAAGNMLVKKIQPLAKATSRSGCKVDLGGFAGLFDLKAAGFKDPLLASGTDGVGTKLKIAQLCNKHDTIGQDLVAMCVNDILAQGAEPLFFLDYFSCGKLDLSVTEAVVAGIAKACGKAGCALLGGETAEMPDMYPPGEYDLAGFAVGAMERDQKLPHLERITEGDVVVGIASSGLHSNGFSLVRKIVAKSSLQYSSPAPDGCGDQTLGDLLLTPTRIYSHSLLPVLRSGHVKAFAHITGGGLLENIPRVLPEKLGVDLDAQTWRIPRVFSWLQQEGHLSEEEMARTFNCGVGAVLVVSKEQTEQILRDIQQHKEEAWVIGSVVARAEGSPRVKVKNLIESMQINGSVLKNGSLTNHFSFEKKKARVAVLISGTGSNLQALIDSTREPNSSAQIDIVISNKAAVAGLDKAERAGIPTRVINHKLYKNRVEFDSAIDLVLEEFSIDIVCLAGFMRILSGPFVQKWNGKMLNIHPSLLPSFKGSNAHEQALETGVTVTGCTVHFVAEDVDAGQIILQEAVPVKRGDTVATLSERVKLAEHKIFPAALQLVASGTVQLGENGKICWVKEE
The experiment in a line: Inhibition of human recombinant GAR transformylase.

In experiment [3] the target is Bifunctional purine biosynthesis protein ATIC (Homo sapiens, UniProt P31939). In words: Inhibition of IMPCH activity of human wild-type ATIC.
Sequence of Bifunctional purine biosynthesis protein ATIC (P31939 whole entry): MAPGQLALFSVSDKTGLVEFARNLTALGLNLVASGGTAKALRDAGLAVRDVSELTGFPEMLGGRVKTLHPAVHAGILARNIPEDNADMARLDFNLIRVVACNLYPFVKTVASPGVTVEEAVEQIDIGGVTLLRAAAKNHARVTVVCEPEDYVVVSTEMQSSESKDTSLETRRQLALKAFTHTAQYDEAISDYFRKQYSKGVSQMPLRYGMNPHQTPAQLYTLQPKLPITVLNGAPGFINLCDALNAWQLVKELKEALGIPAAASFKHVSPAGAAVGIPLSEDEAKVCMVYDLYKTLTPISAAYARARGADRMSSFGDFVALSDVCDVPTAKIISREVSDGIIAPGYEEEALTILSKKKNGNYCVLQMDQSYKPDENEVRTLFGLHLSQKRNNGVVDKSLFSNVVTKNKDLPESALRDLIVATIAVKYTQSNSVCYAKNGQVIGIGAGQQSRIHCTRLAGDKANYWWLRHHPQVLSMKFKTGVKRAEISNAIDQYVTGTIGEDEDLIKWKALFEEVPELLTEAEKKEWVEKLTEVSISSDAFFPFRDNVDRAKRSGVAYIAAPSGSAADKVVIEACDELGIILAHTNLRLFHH

By Ki is commonly meant the equilibrium dissociation constant of an inhibitor or competing ligand from its target. Regarding `O=C1NS(=O)(=O)Nc2nc[nH]c21`, the Ki in experiment [1] and in experiment [2] was above 100 µM in each case.

As to `O=C1NS(=O)(=O)Nc2c1ncn2[C@@H]1O[C@H](COP(=O)(O)O)[C@@H](O)[C@H]1O`, the figures for the Ki in experiment [1] and in experiment [2] were above 100 µM and 4.8 µM, respectively.

On to `O=C1NS(=O)(=O)Nc2c1ncn2[C@@H]1O[C@H](CO)[C@@H](O)[C@H]1O`, for which the Ki in experiment [1] and in experiment [2] was above 100 µM each time.

In turn, `NC(=O)c1ncn([C@@H]2O[C@H](COP(=O)(O)O)[C@@H](O)[C@H]2O)c1NC=O` [FAICAR] returned a Ki in experiment [3] of 400 nM.

In the case of `Nc1nc2c(c(=O)[nH]1)C[C@@H](CCc1ccc(C(=O)N[C@@H](CCC(=O)O)C(=O)O)cc1)CN2` [LOMETREXOL], the affinity in experiment [1] corresponds to a Ki of 0.1 µM.

These data come from ChEMBL document CHEMBL1156444, “Structure-based design, synthesis, evaluation, and crystal structures of transition state analogue inhibitors of inosine monophosphate cyclohydrolase” (J Biol Chem, 2007).
